# Measured values as given in patent US20240368120A1 (Terns Pharmaceuticals, Inc., priority 2023, published 2024).
# Biological target: T1, human GLP-1R receptor (Homo sapiens, UniProt P43220)
# T1 construct: expressed in transfected cells
# Assay: GLP-1R low expression cell assay (cAMP TR-FRET, CHO-K1_hGLP-1Rlow_clone10 cells)
# Format: cell-based
# Details: for EC50: cAMP TR-FRET, 30 min at 25° C.; for Emax: maximum activation relative to control GLP-1 peptide agonist
# Method in brief: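 Readout is cAMP TR-FRET after 30 min compound stimulation at 25 °C of a low-GLP-1R-expressing CHO-K1 clone (1,000 cells/well), with 10-point 3-fold serial dilutions. Percent activation versus a control GLP-1 peptide, from duplicates, was Hill-fitted to give EC50.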
# T1 sequence (P43220 24-463): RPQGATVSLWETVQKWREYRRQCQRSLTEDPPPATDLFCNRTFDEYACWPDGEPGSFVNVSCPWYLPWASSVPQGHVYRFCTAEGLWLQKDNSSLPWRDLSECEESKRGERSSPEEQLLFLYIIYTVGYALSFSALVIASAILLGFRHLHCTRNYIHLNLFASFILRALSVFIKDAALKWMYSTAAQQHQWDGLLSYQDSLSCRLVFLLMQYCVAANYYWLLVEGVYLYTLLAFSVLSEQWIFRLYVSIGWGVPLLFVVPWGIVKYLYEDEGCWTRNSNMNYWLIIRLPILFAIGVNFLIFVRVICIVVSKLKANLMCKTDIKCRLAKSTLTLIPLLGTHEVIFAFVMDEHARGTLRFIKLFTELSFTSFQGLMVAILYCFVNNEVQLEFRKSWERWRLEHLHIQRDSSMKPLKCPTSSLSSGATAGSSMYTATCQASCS
EC50,Emax,Compound
100 to 1000 nM,> 85%,"CCOc1cc(CC(=O)O)cc2c1nc(CN1CCC(c3cccc(OCc4ccc(C#N)cc4F)n3)CC1)n2C [Compound 259, 2-(2-((4-(6-((4-Cyano-2-fluorobenzyl)oxy)pyridin-2-yl)piperidin-1-yl)methyl)-4-ethoxy-1-methyl-1H-benzo[d]imidazol-6-yl) acetic acid]"
< 10 nM,> 85%,"CCOc1cc(C(=O)O)cc2c1nc(CN1CCC(Oc3cccc(COc4ccc(C#N)cc4F)n3)CC1)n2C [Compound 290, 2-((4-((6-((4-Cyano-2-fluorophenoxy)methyl)pyridin-2-yl)oxy)piperidin-1-yl)methyl)-4-ethoxy-1-methyl-1H-benzo[d]imidazole-6-carboxylic acid]"
10 to 100 nM,> 85%,"COc1cc(C(=O)O)cc2c1nc(CN1CCN(c3cccc(OCc4ccc(Cl)cc4F)n3)CC1)n2C [Compound 383, 2-((4-(6-((4-Chloro-2-fluorobenzyl)oxy)pyridin-2-yl)piperazin-1-yl)methyl)-4-methoxy-1-methyl-1H-benzo[d]imidazole-6-carboxylic acid]"
< 10 nM,> 85%,"COc1cc(Cl)ccc1COc1cccc(C2CCN(Cc3nc4c(OC)cc(C(=O)O)cc4n3C)CC2)n1 [Compound 348, 2-((4-(6-((4-Chloro-2-methoxybenzyl)oxy)pyridin-2-yl)piperidin-1-yl)methyl)-4-methoxy-1-methyl-1H-benzo[d]imidazole-6-carboxylic acid]"
< 10 nM,> 85%,"COc1cc(C(=O)O)cc2c1nc(CN1CCC(c3cccc(OCc4cc(F)c(C#N)cc4F)n3)CC1)n2C [Compound 327, 2-((4-(6-((4-Cyano-2,5-difluorobenzyl)oxy)pyridin-2-yl)piperidin-1-yl)methyl)-4-methoxy-1-methyl-1H-benzo[d]imidazole-6-carboxylic acid]"
100 to 1000 nM,50 to 85%,"COc1cc(C(=O)O)cc2c1nc(CN1CCC(c3cccc4c3OC[C@@H](c3ccc(Cl)cc3F)O4)CC1)n2C [Compound 271, (R)-2-((4-(2-(4-Chloro-2-fluorophenyl)-2,3-dihydrobenzo[b][1,4]dioxin-5-yl)piperidin-1-yl)methyl)-4-methoxy-1-methyl-1H-benzo[d]imidazole-6-carboxylic acid]"
> 1000 nM,50 to 85%,"COc1c(F)c(C(=O)O)cc2nc(CN3CCC(c4cccc(OCc5ccc(Cl)cc5F)n4)CC3)n(C)c12 [Compound 338, 2-((4-(6-((4-Chloro-2-fluorobenzyl)oxy)pyridin-2-yl)piperidin-1-yl)methyl)-6-fluoro-7-methoxy-1-methyl-1H-benzo[d]imidazole-5-carboxylic acid]"
100 to 1000 nM,> 85%,"COc1cc(C(=O)O)cc2c1nc(CN1CCC(c3cccc4c3OC[C@@H](c3ccc(C#N)cc3F)O4)CC1)n2C [Compound 278, (R)-2-((4-(2-(4-Cyano-2-fluorophenyl)-2,3-dihydrobenzo[b][1,4]dioxin-5-yl)piperidin-1-yl)methyl)-4-methoxy-1-methyl-1H-benzo[d]imidazole-6-carboxylic acid]"
> 1000 nM,< 25%,"COc1c(F)c(C(=O)O)cc2nc(CN3CCC(c4cccc(OCc5ccc(C#N)cc5F)n4)CC3)n(C)c12 [Compound 336, 2-((4-(6-((4-Cyano-2-fluorobenzyl)oxy)pyridin-2-yl)piperidin-1-yl)methyl)-6-fluoro-7-methoxy-1-methyl-1H-benzo[d]imidazole-5-carboxylic acid]"
10 to 100 nM,> 85%,"Cn1c(CN2CCC(c3cccnc3OCc3ccc(Cl)cc3F)CC2)nc2c(OC(F)F)cc(C(=O)O)cc21 [Compound 364, 2-((4-(2-((4-Chloro-2-fluorobenzyl)oxy)pyridin-3-yl)piperidin-1-yl)methyl)-4-(difluoromethoxy)-1-methyl-1H-benzo[d]imidazole-6-carboxylic acid]"
< 10 nM,> 85%,"Cn1c(CN2CCC(c3cccc(OCc4ccc(C#N)cc4F)n3)CC2)nc2c(OCCO)cc(C(=O)O)cc21 [Compound 291, 2-((4-(6-((4-Cyano-2-fluorobenzyl)oxy)pyridin-2-yl)piperidin-1-yl)methyl)-4-(2-hydroxyethoxy)-1-methyl-1H-benzo[d]imidazole-6-carboxylic acid]"

# Further lines, the compound ahead of its results:
Compound,EC50,Emax
"Cn1c(CN2CCC(c3cccc(OCc4ccc(Cl)cc4F)n3)CC2)nc2c(OC(F)(F)CF)cc(C(=O)O)cc21 [Compound 235, 2-((4-(6-((4-Chloro-2-fluorobenzyl)oxy)pyridin-2-yl)piperidin-1-yl)methyl)-1-methyl-4-(1,1,2-trifluoroethoxy)-1H-benzo[d]imidazole-6-carboxylic acid]",10 to 100 nM,> 85%
"Cn1c(CN2CCC(c3ccc(F)c(OCc4ccc(C(N)=O)cc4F)n3)CC2)nc2c(OC(F)F)cc(C(=O)O)cc21 [Compound 185, 2-((4-(6-((4-carbamoyl-2-fluorobenzyl)oxy)-5-fluoropyridin-2-yl)piperidin-1-yl)methyl)-4-(difluoromethoxy)-1-methyl-1H-benzo[d]imidazole-6-carboxylic acid]",100 to 1000 nM,> 85%
"Cn1c(CN2CCC(c3cccc(OCc4ccc(Cl)cn4)n3)CC2)nc2c(OC(F)F)cc(C(=O)O)cc21 [Compound 247, 2-((4-(6-((5-Chloropyridin-2-yl)methoxy)pyridin-2-yl)piperidin-1-yl)methyl)-4-(difluoromethoxy)-1-methyl-1H-benzo[d]imidazole-6-carboxylic acid]",100 to 1000 nM,> 85%
"Cn1c(CN2CCC(c3cccc(OCc4ccc(Cl)cc4F)n3)CC2)nc2c(OCC(F)(F)F)cc(C(=O)O)cc21 [Compound 224, 2-((4-(6-((4-Chloro-2-fluorobenzyl)oxy)pyridin-2-yl)piperidin-1-yl)methyl)-1-methyl-4-(2,2,2-trifluoroethoxy)-1H-benzo[d]imidazole-6-carboxylic acid]",10 to 100 nM,> 85%
"[2H]C([2H])(Oc1cccc(C2CCN(Cc3nc4c(OC(F)F)cc(C(=O)O)cc4n3C)CC2)n1)c1ccc(Cl)cc1F [Compound 195, 2-((4-(6-((4-Chloro-2-fluorophenyl)methoxy-d2)pyridin-2-yl)piperidin-1-yl)methyl)-4-(difluoromethoxy)-1-methyl-1H-benzo[d]imidazole-6-carboxylic acid]",10 to 100 nM,> 85%
"Cn1c(CN2CCC(c3cccc4c3O[C@H](c3ccc(C#N)cc3F)CO4)CC2)nc2c(OC(F)F)cc(C(=O)O)cc21 [Compound 124, (R)-2-((4-(3-(4-Cyano-2-fluorophenyl)-2,3-dihydrobenzo[b][1,4]dioxin-5-yl)piperidin-1-yl)methyl)-4-(difluoromethoxy)-1-methyl-1H-benzo[d]imidazole-6-carboxylic acid]",> 1000 nM,25 to 50%
"Cn1c(CN2CCC(c3cccc(OCc4ccc(C#N)cc4F)n3)CC2)nc2c(OCCF)cc(C(=O)O)cc21 [Compound 183, 2-((4-(6-((4-Cyano-2-fluorobenzyl)oxy)pyridin-2-yl)piperidin-1-yl)methyl)-4-(2-fluoroethoxy)-1-methyl-1H-benzo[d]imidazole-6-carboxylic acid]",< 10 nM,> 85%
"Cn1c(CN2CCC(c3cccc(OCc4ccc(C(F)(F)F)cc4)n3)CC2)nc2c(OC(F)F)cc(C(=O)O)cc21 [Compound 203, 4-(difluoromethoxy)-1-methyl-2-((4-(6-((4-(trifluoromethyl)benzyl)oxy)pyridin-2-yl)piperidin-1-yl)methyl)-1H-benzo[d]imidazole-6-carboxylic acid]",10 to 100 nM,> 85%
"COc1cc(C(=O)O)cc2nc(CN3CCC(c4cccc(OCc5ccc(Cl)cc5F)n4)CC3)n(CF)c12 [Compound 192, 2-((4-(6-((4-Chloro-2-fluorobenzyl)oxy)pyridin-2-yl)piperidin-1-yl)methyl)-1-(fluoromethyl)-7-methoxy-1H-benzo[d]imidazole-5-carboxylic acid]",> 1000 nM,50 to 85%
"COc1cc(C(=O)O)cc2c1nc([C@@H](C)N1CCC(c3cccc(OCc4ccc(C#N)cc4F)n3)CC1)n2C[C@@H]1CCO1 [Compound 94, 2-((R)-1-(4-(6-((4-Cyano-2-fluorobenzyl)oxy)pyridin-2-yl)piperidin-1-yl)ethyl)-4-methoxy-1-(((S)-oxetan-2-yl)methyl)-1H-benzo[d]imidazole-6-carboxylic acid]",> 1000 nM,> 85%
"N#Cc1ccc(COc2cccc(C3CCN(Cc4nc5cc(C(=O)O)c6c(c5n4C[C@@H]4CCO4)OCCO6)CC3)n2)c(F)c1 [Compound 101, (S)-2-((4-(6-((4-Cyano-2-fluorobenzyl)oxy)pyridin-2-yl)piperidin-1-yl)methyl)-1-(oxetan-2-ylmethyl)-7,8-dihydro-1H-[1,4]dioxino[2′,3′:3,4]benzo[1,2-d]imidazole-5-carboxylic acid]",10 to 100 nM,> 85%
"Cn1c(CN2CCC(c3cccc(OCc4ccc(Cl)cc4F)n3)CC2)nc2c(Cl)cc(C(=O)O)cc21 [Compound 218, 4-chloro-2-((4-(6-((4-chloro-2-fluorobenzyl)oxy)pyridin-2-yl)piperidin-1-yl)methyl)-1-methyl-1H-benzo[d]imidazole-6-carboxylic acid]",10 to 100 nM,> 85%
"Cn1c(CN2CCN(c3cccc(OCc4ccc(Cl)cc4F)n3)CC2)nc2c(OC(F)F)cc(C(=O)O)cc21 [Compound 150, 2-((4-(6-((4-Chloro-2-fluorobenzyl)oxy)pyridin-2-yl)piperazin-1-yl)methyl)-4-(difluoromethoxy)-1-methyl-1H-benzo[d]imidazole-6-carboxylic acid]",10 to 100 nM,> 85%
"Cn1c(CN2CCC(c3cccc(OCc4ccc(Cl)cc4F)n3)CC2)nc2c(OC[C@@H]3CCO3)cc(C(=O)O)cc21 [Compound 211, (S)-2-((4-(6-((4-Chloro-2-fluorobenzyl)oxy)pyridin-2-yl)piperidin-1-yl)methyl)-1-methyl-4-(oxetan-2-ylmethoxy)-1H-benzo[d]imidazole-6-carboxylic acid]",10 to 100 nM,> 85%
